The nature of one data set: clinical. The following applies: human, in vivo, po.
The conditions of data set [1]: human, in vivo.
In another data set the test system is low-grade glioma. The following applies: single-agent temozolomide, cited from earlier work.
Another data set relates to medulloblastoma/PNETs. To be noted: of 25 evaluable patients with medulloblastoma/PNETs; cited from earlier work.
Another data set is described as follows: Phase I dose escalation. Format: in vivo, children. The following applies: oral, days 1–5 every 28 days, VOR about one hour before TEM.
The conditions of data set [2]: given continuously as a single daily dose; pediatric; cited from earlier work.
For data set [3] the following is noted: systemically administered; cited from earlier work.

Like-named read-outs stand apart in the source and are kept apart here.

The term AUC(0-inf) denotes the area under the concentration-time curve extrapolated to infinity. `O=C(O)CCC(=O)Nc1ccccc1` [4-anilino-4-oxobutanoic acid, 4-anilino-4-oxobutanoic acid]: the AUC(0-inf) in the data set “clinical” (230 mg/m2, AUC0-∞) was determined as 6900 ng·h/mL; in “clinical” (300 mg/m2, AUC0-∞), 7490 ng·h/mL. Further, the Cmax was 490 ng/mL in the data set “clinical” (230 mg/m2, Cmax); 750 ng/mL in the data set “clinical” (300 mg/m2, Cmax); 814 (588 – 832) ng/ml in data set [1] (po, 300 mg/m2). For the same molecule, the half-life in “clinical” (230 mg/m2, Half-life) is 10.4 h; in the data set “clinical” (300 mg/m2, Half-life), 9.18 h; in data set [1] (po, 300 mg/m2) it was 9.19 (6.49 – 11.6) hrs. Moreover, the Tmax in the data set “clinical” (230 mg/m2, Tmax) was 3 h; in “clinical” (300 mg/m2, Tmax), 4 h; in data set [1] (po, 300 mg/m2), 2.00 (0.88 – 6.00) hrs. Moreover, the “AUC0-∞” value in data set [1] (po, 300 mg/m2) is recorded as 9590 (7150 – 16600) ng/ml*hr.
Consider `Cn1nnc2c(C(N)=O)ncn2c1=O` [TEM, Temozolomide], for which, in the data set on low-grade glioma (adults), the “patients having prolonged stable disease” value is 30% and the response rates is 50–60%. Besides, the “median progression-free survival (PFS)” value in the data set on low-grade glioma was 22–28 months. In addition, the “complete or partial responses, patients” value with medulloblastoma/PNETs is 4. Moreover, the “pediatric MTD and recommended phase II dosing for the combination of VOR and TEM” value in the data set “Phase I dose escalation” is 150 mg/m^2/day.
`O=C(CCCCCCC(=O)Nc1ccccc1)NO` [VOR, suberoylanilide hydroxamic acid]: the half-life was 2.61 h in the data set “clinical” (230 mg/m2, Half-life); 2.62 h in the data set “clinical” (300 mg/m2, Half-life); 2.80 (2.23 – 5.90) hrs in data set [1] (po, 300 mg/m2). The AUC(0-inf) in “clinical” (300 mg/m2, AUC0-∞) amounted to 1790 ng·h/mL. The Cmax is 422 ng/mL in the data set “clinical” (300 mg/m2, Cmax); 390 (221 – 655) ng/ml in data set [1] (po, 230 mg/m2); 578 (200 – 821) ng/ml in data set [1] (po, 300 mg/m2). Besides, the “MTD of single-agent oral VOR” value in data set [2] was 230 mg/m^2/day. In data set [3], the “blood brain barrier crossing” value was “crosses the blood brain barrier”. Besides, the “time to maximum concentration” value in data set [1] came to 2 h. Further, the “pediatric MTD and recommended phase II dosing for the combination of VOR and TEM” value in “Phase I dose escalation” amounted to 300 mg/m^2/day.

Values taken from article PMC4139006 (Pediatric blood & cancer, 2013).
